Assay results: patent US10258642B2, “Dextran sulfate for use in mobilization of cells” (TX MEDIC AB, priority 2013, dated 2019)
Marks after values point to notes of the source that are not given here.

Tests used:
peripheral blood cells [1] = conditions: single dose; AMD3100 s.c., dextran sulfate i.v.
peripheral blood cells [2] = test: s.c. dose finding study, hematological analysis of peripheral blood; conditions: for Basophils / Eosinophils / Erythrocytes / Hematocrit / Hemoglobin / LUC / Leukocytes (WBC) / Lymphocytes / MCHC / MCV / MPV / Monocytes / Neutrophils / Platelets / Reticulocytes: 3 hours, mean ± SEM

dextran sulfate [LMW-DS] was tested, and the “general increase of WBC over control” value (peripheral blood cells [1]) was 4-5 times, the “circulating white blood cells (WBC), mainly lymphocytes, and HGF” value (peripheral blood cells [2]; 10-500 mg/kg s.c., 3 hours after administration) was “dose-dependent increase” and the Basophils (peripheral blood cells [2]; LMW-DS (pKC) 10 mg/kg s.c.) was 0.02 ± 0.0 10^9 cells/L. The Eosinophils (peripheral blood cells [2]; LMW-DS (pKC) 10 mg/kg s.c.) was 0.2 ± 0.0† 10^9 cells/L, the Erythrocytes (peripheral blood cells [2]; LMW-DS (pKC) 10 mg/kg s.c.) was 9.0 ± 0.0††† 10^12 cells/L and the Hematocrit (peripheral blood cells [2]; LMW-DS (pKC) 10 mg/kg s.c.) was 0.4 ± 0.0. The Hemoglobin (peripheral blood cells [2]; LMW-DS (pKC) 10 mg/kg s.c.) was 122.0 ± 1.7, the LUC (peripheral blood cells [2]; LMW-DS (pKC) 10 mg/kg s.c.) was 0.1 ± 0.0* 10^9 cells/L and the “Leukocytes (WBC)” value (peripheral blood cells [2]; LMW-DS (pKC) 10 mg/kg s.c.) was 9.0 ± 1.2* 10^9 cells/L. The Lymphocytes (peripheral blood cells [2]; LMW-DS (pKC) 10 mg/kg s.c.) was 6.1 ± 0.5** 10^9 cells/L, the MCHC (peripheral blood cells [2]; LMW-DS (pKC) 10 mg/kg s.c.) was 323.7 ± 3.8 g/L and the MCV (peripheral blood cells [2]; LMW-DS (pKC) 10 mg/kg s.c.) was 41.9 ± 0.1 fL. For the same substance, the MPV (peripheral blood cells [2]; LMW-DS (pKC) 10 mg/kg s.c.) was 7.7 ± 0.2, the Monocytes (peripheral blood cells [2]; LMW-DS (pKC) 10 mg/kg s.c.) was 0.6 ± 0.011 10^9 cells/L and the Neutrophils (peripheral blood cells [2]; LMW-DS (pKC) 10 mg/kg s.c.) was 1.9 ± 0.4 10^9 cells/L. For the same substance, the Platelets (peripheral blood cells [2]; LMW-DS (pKC) 10 mg/kg s.c.) was 1083.3 ± 116.3† 10^9 cells/L, the Reticulocytes (peripheral blood cells [2]; LMW-DS (pKC) 10 mg/kg s.c.) was 222.7 ± 6.3 10^9 cells/L and the Basophils (peripheral blood cells [2]; LMW-DS (pKC) 50 mg/kg s.c.) was 0.03 ± 0.0 10^9 cells/L. For the same substance, the Eosinophils (peripheral blood cells [2]; LMW-DS (pKC) 50 mg/kg s.c.) was 0.2 ± 0.0 10^9 cells/L, the Erythrocytes (peripheral blood cells [2]; LMW-DS (pKC) 50 mg/kg s.c.) was 9.2 ± 0.4† 10^12 cells/L and the Hematocrit (peripheral blood cells [2]; LMW-DS (pKC) 50 mg/kg s.c.) was 0.4 ± 0.0. For the same substance, the Hemoglobin (peripheral blood cells [2]; LMW-DS (pKC) 50 mg/kg s.c.) was 127.8 ± 5.0, the LUC (peripheral blood cells [2]; LMW-DS (pKC) 50 mg/kg s.c.) was 0.1 ± 0.0* 10^9 cells/L and the “Leukocytes (WBC)” value (peripheral blood cells [2]; LMW-DS (pKC) 50 mg/kg s.c.) was 9.4 ± 0.7 10^9 cells/L. The Lymphocytes (peripheral blood cells [2]; LMW-DS (pKC) 50 mg/kg s.c.) was 7.3 ± 0.6**/f 10^9 cells/L, the MCHC (peripheral blood cells [2]; LMW-DS (pKC) 50 mg/kg s.c.) was 324.3 ± 1.41 g/L and the MCV (peripheral blood cells [2]; LMW-DS (pKC) 50 mg/kg s.c.) was 42.6 ± 0.3 fL. The MPV (peripheral blood cells [2]; LMW-DS (pKC) 50 mg/kg s.c.) was 7.9 ± 0.1, the Monocytes (peripheral blood cells [2]; LMW-DS (pKC) 50 mg/kg s.c.) was 0.3 ± 0.1 10^9 cells/L and the Neutrophils (peripheral blood cells [2]; LMW-DS (pKC) 50 mg/kg s.c.) was 1.5 ± 0.2 10^9 cells/L. The Platelets (peripheral blood cells [2]; LMW-DS (pKC) 50 mg/kg s.c.) was 902.0 ± 96.4 10^9 cells/L, the Reticulocytes (peripheral blood cells [2]; LMW-DS (pKC) 50 mg/kg s.c.) was 230.1 ± 64.6 10^9 cells/L and the Basophils (peripheral blood cells [2]; LMW-DS (pKC) 150 mg/kg s.c.) was 0.1 ± 0.0** 10^9 cells/L. For the same substance, the Eosinophils (peripheral blood cells [2]; LMW-DS (pKC) 150 mg/kg s.c.) was 0.3 ± 0.1* 10^9 cells/L, the Erythrocytes (peripheral blood cells [2]; LMW-DS (pKC) 150 mg/kg s.c.) was 8.3 ± 0.6 10^12 cells/L and the Hematocrit (peripheral blood cells [2]; LMW-DS (pKC) 150 mg/kg s.c.) was 0.3 ± 0.0. For the same substance, the Hemoglobin (peripheral blood cells [2]; LMW-DS (pKC) 150 mg/kg s.c.) was 113.3 ± 8.2, the LUC (peripheral blood cells [2]; LMW-DS (pKC) 150 mg/kg s.c.) was 0.1 ± 0.0***/†† 10^9 cells/L and the “Leukocytes (WBC)” value (peripheral blood cells [2]; LMW-DS (pKC) 150 mg/kg s.c.) was 15.7 ± 0.4***/††† 10^9 cells/L. For the same substance, the MCHC (peripheral blood cells [2]; LMW-DS (pKC) 150 mg/kg s.c.) was 329.3 ± 4.9 g/L, the MCV (peripheral blood cells [2]; LMW-DS (pKC) 150 mg/kg s.c.) was 41.7 ± 0.4 fL and the MPV (peripheral blood cells [2]; LMW-DS (pKC) 150 mg/kg s.c.) was 7.2 ± 0.5. The Monocytes (peripheral blood cells [2]; LMW-DS (pKC) 150 mg/kg s.c.) was 0.4 ± 0.0*/†† 10^9 cells/L, the Neutrophils (peripheral blood cells [2]; LMW-DS (pKC) 150 mg/kg s.c.) was 2.4 ± 0.3** 10^9 cells/L and the Platelets (peripheral blood cells [2]; LMW-DS (pKC) 150 mg/kg s.c.) was 893.5 ± 60.8† 10^9 cells/L. For the same substance, the Reticulocytes (peripheral blood cells [2]; LMW-DS (pKC) 150 mg/kg s.c.) was 243.7 ± 23.7 10^9 cells/L, the Basophils (peripheral blood cells [2]; LMW-DS (pKC) 500 mg/kg s.c.) was 0.1 ± 0.0* 10^9 cells/L and the Eosinophils (peripheral blood cells [2]; LMW-DS (pKC) 500 mg/kg s.c.) was 0.4 ± 0.1* 10^9 cells/L. The Erythrocytes (peripheral blood cells [2]; LMW-DS (pKC) 500 mg/kg s.c.) was 9.4 ± 0.2††† 10^12 cells/L, the Hematocrit (peripheral blood cells [2]; LMW-DS (pKC) 500 mg/kg s.c.) was 0.4 ± 0.0 and the Hemoglobin (peripheral blood cells [2]; LMW-DS (pKC) 500 mg/kg s.c.) was 130.3 ± 3.1. For the same substance, the LUC (peripheral blood cells [2]; LMW-DS (pKC) 500 mg/kg s.c.) was 0.3 ± 0.2 10^9 cells/L and the “Leukocytes (WBC)” value (peripheral blood cells [2]; LMW-DS (pKC) 500 mg/kg s.c.) was 21.8 ± 2.5***/†† 10^9 cells/L.
